From patent US20100323890A1, “METHOD FOR IMPROVING THE RESISTANCE OF PLANTS TO STRESS AND CORRESPONDING PRODUCTS” (priority 2007, published 2010)

System: Arabidopsis thaliana
Experiment: Arabidopsis thaliana seedling growth on culture medium containing 1 μM atrazine (atrazine tolerance)
Assay type: in vivo
Conditions: 15 days of incubation
Experimental: In this context, a mixture of sucrose and putrescine were tested. […] For a first control, no carbohydrate or polyamine were added to the culture medium. For a second control, only sucrose, at a rate of 3%, which is equivalent to a concentration of 87 millimolar, was added thereto. Finally, for a test according to the present invention, sucrose, at a rate of 3% and putrescine, at a rate of 3 to 6 mM, were added to the culture medium. The Petri dishes were stored for 48 hrs at 4° C. and transferred to 22° C. for a photoperiod of 16 hours per day at 4500 lux. The parameters characterizing the plant growth were referenced after 15 days of incubation: the biomass (% fresh weight) and chlorophyll (μg/seedling) produced were determined; the development of the main root (cm) and the secondary root system (primordia/seedlings) were recorded.

Row | Structure (SMILES) | seedling development in the presence of atrazine (FIG. 1) (no carbohydrate or polyamine added) | effect on atrazine inhibition / atrazine resistance, by size of the seedlings (FIG. 1)
1 | CCNc1nc(Cl)nc(NC(C)C)n1 [atrazine, 2-chloro-4-ethylamino-6-isopropylamine-1,3,5-triazine] | unable to develop the photosynthetic apparatus | –
2 | OC[C@H]1O[C@@](CO)(O[C@H]2O[C@H](CO)[C@@H](O)[C@H](O)[C@H]2O)[C@@H](O)[C@@H]1O [sucrose] | – | makes it possible to lift the atrazine inhibition effect
